Experimental data: publication PMC12775434, “Ultra-large virtual screening unveils potent agonists of the neuromodulatory orphan receptor GPR139” (Nature Communications, 2025)
“And” between values parts separate entries of the source, which are not always exact repeats. Equal values may be shown once. Read-outs that look alike come from different tables or passages of the source.

Key:
GPR139 [1] = molecular target: T1, GPR139 (Homo sapiens, UniProt Q6DWJ6); test: Inositol monophosphate (IP1) accumulation assay, GPR139-CHOk1; format: cell-based; conditions: for Emax: normalized to Lundbeck Cmp 1a
T1 sequence (Q6DWJ6 1-353): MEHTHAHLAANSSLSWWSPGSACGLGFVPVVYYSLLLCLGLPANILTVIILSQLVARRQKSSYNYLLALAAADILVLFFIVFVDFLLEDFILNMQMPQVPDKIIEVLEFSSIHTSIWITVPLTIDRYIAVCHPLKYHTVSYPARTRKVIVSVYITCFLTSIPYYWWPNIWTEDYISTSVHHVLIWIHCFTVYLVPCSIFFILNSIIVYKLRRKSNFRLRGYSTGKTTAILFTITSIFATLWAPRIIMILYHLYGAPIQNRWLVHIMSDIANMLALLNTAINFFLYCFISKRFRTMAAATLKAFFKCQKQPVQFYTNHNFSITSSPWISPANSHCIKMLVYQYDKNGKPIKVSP
Method: Primary screening and pharmacological characterization of compounds were performed using a CHO-K1 cell line that stably expresses human GPR139 (GPR139-CHOk1). The GPR139-CHOk1 cell line was kindly provided by H. Lundbeck A/S, Denmark[24]. GPR139-CHOk1 cells were grown in Ham’s F-12 Kaighn’s Modification Medium (ThermoFisher #21127030) supplemented with 10% dialyzed fetal bovine serum (US origin, ThermoFisher #26400044), 100 units/mL Penicillin-Streptomycin (ThermoFisher #15140122), and 1 mg/mL Geneticin (ThermoFisher #11811031). […] M1R-CHOk1 cells were purchased from The Missouri S&T cDNA Resource Center (#CEM100TN00). M1R-CHOk1 cells were grown in Ham’s F12 Medium (ThermoFisher #21765029) supplemented with 10% fetal bovine serum (Brazilian origin, ThermoFisher #10270106), 100 units/mL Penicillin-Streptomycin, and 0.25 mg/mL Geneticin. HEK293A cells transiently transfected with GPR139 were used for additional pharmacological assessment of signaling pathways activated by GPR139. HEK239A cells were generously provided by Dr. Asuka Inoue, Tohoku University, Japan. HEK293A cells were grown in Dulbecco’s Modified Eagle Medium (ThermoFisher #31966047) supplemented with 10% dialyzed fetal bovine serum and 100 units/mL Penicillin-Streptomycin. Cell lines were maintained at 37 °C in humidified incubator equilibrated with 5% CO2.
HTRF IP-One Gq kit (Cisbio #62IPAPEC) was used to detect the accumulation of inositol monophosphate (IP1) as described in the work by Shehata et al.[26]. GPR139-CHOk1 cells were dissociated and resuspended in HEPES buffer. 50,000 cells in 5 µL and 5 µL test compounds diluted from DMSO stocks (final DMSO concentration of maximally 0.3%) in HEPES buffer supplemented with 40 mM LiCl were mixed in each well of white 384-well OptiPlate (PerkinElmer #6007290). The cells were incubated for 1 h at 37 °C. Then, 10 µL detection reagent composed of 2.5% Eu3 + -anti-IP1 antibody and 2.5% IP1-d2 diluted in lysis buffer was added, and the cells were incubated for 1 h at room temperature before measurements. Measurements were performed on EnVision Multimode Plate Reader (PerkinElmer) using excitation light of 340 nm and emission light of 615 nm and 665 nm. The time resolved-fluorescence resonance energy transfer (TR-FRET) 665 nm/615 nm ratio, which is inversely proportional to the IP1 accumulation, was used to determine the IP1 response.
Pharmacological data and statistical analyses were performed in GraphPad Prism v9–10 (Graphpad Software Inc., San Diego, CA), which are also specifically described in the figure and table legends. The functional assay responses were normalized to buffer (0%) and Lundbeck Cmp 1a or JNJ-63533054 (100%), for Ca^2+ and IP1 experiments in the GPR139-CHOk1 stable cell line or Ca^2+, G protein activation, and arrestin-3 recruitment experiments in the HEK293A cells transiently transfected with GPR139, respectively. Data are from at least three independent experiments, unless stated otherwise. Concentration-response curves were fitted applying non-linear regression using the log (agonist) versus response model with variable slope. ANOVA was applied for comparing results and determining statistical significance. Comparison of responses to the reference was performed using one-way ANOVA with Dunnett’s multiple comparisons test at significance threshold of p < 0.05. Comparison of responses across assays and ligands was performed using two-way ANOVA with Tukey’s multiple comparisons test at a significance threshold of p < 0.05.

GPR139 [2] = molecular target: T1, GPR139; test: Ca2+ mobilization assay, antagonist mode (EC80 800 nM Lundbeck Cmp 1a after 20 min preincubation), GPR139-CHOk1; format: cell-based
Method in brief: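 Antagonist mode: 800 nM (EC80) reference agonist Lundbeck Cmp 1a added following 20 min pre-incubation with 10 µM compound. GPR139-CHOk1 cells, Fluo-4 dye, probenecid-containing HEPES buffer pH 7.4; intracellular Ca2+ measured at 37 °C (ex 485, em 525 nm).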

[3] = Supplementary Table 2, read-out: Emax (%) IP1
[4] = log [Compound] M -4.5, replicate experiments
[5] = log [Compound] M -5.0, replicate experiments
[6] = log [Compound] M -5.5, replicate experiments
[7] = log [Compound] M -6.0, replicate experiments
[8] = log [Compound] M -6.5, replicate experiments
[9] = log [Compound] M -7.0, replicate experiments
[10] = log [Compound] M -7.5, replicate experiments
[11] = log [Compound] M -8.0, replicate experiments

| SMILES | Emax (GPR139 [1]; [3]) | IP1 response (% of Cmp 1a) (GPR139 [1]; [4]) | IP1 response (% of Cmp 1a) (GPR139 [1]; [5]) | IP1 response (% of Cmp 1a) (GPR139 [1]; [6]) | IP1 response (% of Cmp 1a) (GPR139 [1]; [7]) | IP1 response (% of Cmp 1a) (GPR139 [1]; [8]) | IP1 response (% of Cmp 1a) (GPR139 [1]; [9]) | IP1 response (% of Cmp 1a) (GPR139 [1]; [10]) | IP1 response (% of Cmp 1a) (GPR139 [1]; [11]) | also measured |
| --- | --- | --- | --- | --- | --- | --- | --- | --- | --- | --- |
| Cc1cscc1-c1nc(CC(=O)NC(C)c2ccccc2)no1 (stereo not shown) [Compound 1.1, CC(C1=CC=CC=C1)NC(CC2=NOC(C3=CSC=C3C)=N2)=O] | 91 ± 10% | 92 % of Cmp 1a and 58 % of Cmp 1a and 83 % of Cmp 1a and 87 % of Cmp 1a | 112 % of Cmp 1a and 74 % of Cmp 1a and 80 % of Cmp 1a and 115 % of Cmp 1a | 111 % of Cmp 1a and 87 % of Cmp 1a and 96 % of Cmp 1a and 100 % of Cmp 1a | 125 % of Cmp 1a and 85 % of Cmp 1a and 89 % of Cmp 1a | 112 % of Cmp 1a and 76 % of Cmp 1a (2×) and 95 % of Cmp 1a | 71 % of Cmp 1a and 56 % of Cmp 1a and 38 % of Cmp 1a and 67 % of Cmp 1a | 56 % of Cmp 1a and 27 % of Cmp 1a and 28 % of Cmp 1a and 45 % of Cmp 1a | 22 % of Cmp 1a and 5 % of Cmp 1a and -0.544 % of Cmp 1a and 16 % of Cmp 1a | EC50 (GPR139 [1]; GPR139-CHOk1, read-out: EC50, IP1 accumulation): 50 nM; IP1 response (% of Cmp 1a) (GPR139 [1]; log [compound] M -4.5, individual replicates): 92 % of Cmp 1a and 58 % of Cmp 1a and 83 % of Cmp 1a and 87 % of Cmp 1a; IP1 response (% of Cmp 1a) (GPR139 [1]; log [compound] M -5.0, individual replicates): 112 % of Cmp 1a and 74 % of Cmp 1a and 80 % of Cmp 1a and 115 % of Cmp 1a; IP1 response (% of Cmp 1a) (GPR139 [1]; log [compound] M -5.5, individual replicates): 111 % of Cmp 1a and 87 % of Cmp 1a and 96 % of Cmp 1a and 100 % of Cmp 1a; IP1 response (% of Cmp 1a) (GPR139 [1]; log [compound] M -6.0, individual replicates): 125 % of Cmp 1a and 85 % of Cmp 1a and 89 % of Cmp 1a; IP1 response (% of Cmp 1a) (GPR139 [1]; log [compound] M -6.5, individual replicates): 112 % of Cmp 1a and 76 % of Cmp 1a (2×) and 95 % of Cmp 1a; IP1 response (% of Cmp 1a) (GPR139 [1]; log [compound] M -7.0, individual replicates): 71 % of Cmp 1a and 56 % of Cmp 1a and 38 % of Cmp 1a and 67 % of Cmp 1a; IP1 response (% of Cmp 1a) (GPR139 [1]; log [compound] M -7.5, individual replicates): 56 % of Cmp 1a and 27 % of Cmp 1a and 28 % of Cmp 1a and 45 % of Cmp 1a; IP1 response (% of Cmp 1a) (GPR139 [1]; log [compound] M -8.0, individual replicates): 22 % of Cmp 1a and 5 % of Cmp 1a and -0.544 % of Cmp 1a and 16 % of Cmp 1a; Ca2+ signal (% of Cmp 1a) (GPR139 [2]; individual replicates (Supplementary Figure 4)): -3.33 % of Cmp 1a and 11 % of Cmp 1a and -12 % of Cmp 1a |
| COC(=O)c1cc(NC(=O)NC(C)c2cccc(F)c2F)ccc1C (stereo not shown) [Compound 2, COC(=O)C=1C=C(NC(=O)NC(C)C=2C=CC=C(F)C2F)C=CC1C] | 85 ± 8% | 75 % of Cmp 1a and 55 % of Cmp 1a and 76 % of Cmp 1a and 90 % of Cmp 1a | 64 % of Cmp 1a and 44 % of Cmp 1a and 66 % of Cmp 1a and 76 % of Cmp 1a | 50 % of Cmp 1a and 41 % of Cmp 1a and 46 % of Cmp 1a and 65 % of Cmp 1a | 34 % of Cmp 1a and 26 % of Cmp 1a and 28 % of Cmp 1a and 41 % of Cmp 1a | 18 % of Cmp 1a and 16 % of Cmp 1a and 10 % of Cmp 1a and 22 % of Cmp 1a | 8 % of Cmp 1a (2×) and 5 % of Cmp 1a and 3.81 % of Cmp 1a | 6.59 % of Cmp 1a and -1 % of Cmp 1a and 0.549 % of Cmp 1a and 2.33 % of Cmp 1a | 1.89 % of Cmp 1a and -0.926 % of Cmp 1a and 0.158 % of Cmp 1a and 0.886 % of Cmp 1a | EC50 (GPR139 [1]; Supplementary Table 2, mean ± SEM, read-out: pEC50 IP1 (converted)): 1580 nM; Ca2+ signal (% of Cmp 1a) (GPR139 [2]; individual replicates (Supplementary Figure 1)): 21.0785 % of Cmp 1a and 18.2142 % of Cmp 1a and 25.1866 % of Cmp 1a |
| CC(NC(=O)CNC(=O)c1cccc(Cl)c1)c1ccccc1 (stereo not shown) [JNJ-63533054, reference compound] |  | 132 % of Cmp 1a and 117 % of Cmp 1a and 179 % of Cmp 1a and 200 % of Cmp 1a | 149 % of Cmp 1a and 120 % of Cmp 1a and 161 % of Cmp 1a and 172 % of Cmp 1a | 112 % of Cmp 1a and 93 % of Cmp 1a and 135 % of Cmp 1a and 165 % of Cmp 1a | 129 % of Cmp 1a and 86 % of Cmp 1a and 138 % of Cmp 1a and 168 % of Cmp 1a | 93 % of Cmp 1a (2×) and 74 % of Cmp 1a and 97 % of Cmp 1a | 56 % of Cmp 1a and 47 % of Cmp 1a and 72 % of Cmp 1a and 84 % of Cmp 1a | 40 % of Cmp 1a and 23 % of Cmp 1a and 36 % of Cmp 1a and 37 % of Cmp 1a | 24 % of Cmp 1a and 9 % of Cmp 1a and 8 % of Cmp 1a and 2 % of Cmp 1a | Emax (GPR139 [1]; Supplementary Table 4, read-out: Emax (%), IP1 accumulation): 157 ± 16%; EC50 (GPR139 [1]; Supplementary Table 4, read-out: pEC50, IP1 accumulation (converted)): 200 nM |
